Experimental findings from patent publication US11752155B2, “Treatment of autism spectrum disorders, obsessive-compulsive disorder and anxiety disorders” (Rugen Holdings (Cayman) Limited, priority 2016, dated 2023) are described below.

Where “and” joins values, the source holds several entries; their conditions need not be identical. Identical values can stand only once. Like-named read-outs stand apart in the source and are kept apart here. A value given as a limit tells only on which side of the number the result lay.

One data set deals with hERG channel (Homo sapiens (Human), UniProt Q12809). As to the kind of experiment: hERG channel inhibition, whole cell patch clamp in HEK293 cells. In kind it is cell-based. As to conditions: for inhibition at 5 min, 10 µM: human, HEK293 cells stably expressing hERG channel, pH 7.35; for IC50: Table 1.3B. On the technique in general: hERG is a cardiac potassium channel; its block is linked to QT prolongation.
Chain of hERG channel (Q12809 whole entry): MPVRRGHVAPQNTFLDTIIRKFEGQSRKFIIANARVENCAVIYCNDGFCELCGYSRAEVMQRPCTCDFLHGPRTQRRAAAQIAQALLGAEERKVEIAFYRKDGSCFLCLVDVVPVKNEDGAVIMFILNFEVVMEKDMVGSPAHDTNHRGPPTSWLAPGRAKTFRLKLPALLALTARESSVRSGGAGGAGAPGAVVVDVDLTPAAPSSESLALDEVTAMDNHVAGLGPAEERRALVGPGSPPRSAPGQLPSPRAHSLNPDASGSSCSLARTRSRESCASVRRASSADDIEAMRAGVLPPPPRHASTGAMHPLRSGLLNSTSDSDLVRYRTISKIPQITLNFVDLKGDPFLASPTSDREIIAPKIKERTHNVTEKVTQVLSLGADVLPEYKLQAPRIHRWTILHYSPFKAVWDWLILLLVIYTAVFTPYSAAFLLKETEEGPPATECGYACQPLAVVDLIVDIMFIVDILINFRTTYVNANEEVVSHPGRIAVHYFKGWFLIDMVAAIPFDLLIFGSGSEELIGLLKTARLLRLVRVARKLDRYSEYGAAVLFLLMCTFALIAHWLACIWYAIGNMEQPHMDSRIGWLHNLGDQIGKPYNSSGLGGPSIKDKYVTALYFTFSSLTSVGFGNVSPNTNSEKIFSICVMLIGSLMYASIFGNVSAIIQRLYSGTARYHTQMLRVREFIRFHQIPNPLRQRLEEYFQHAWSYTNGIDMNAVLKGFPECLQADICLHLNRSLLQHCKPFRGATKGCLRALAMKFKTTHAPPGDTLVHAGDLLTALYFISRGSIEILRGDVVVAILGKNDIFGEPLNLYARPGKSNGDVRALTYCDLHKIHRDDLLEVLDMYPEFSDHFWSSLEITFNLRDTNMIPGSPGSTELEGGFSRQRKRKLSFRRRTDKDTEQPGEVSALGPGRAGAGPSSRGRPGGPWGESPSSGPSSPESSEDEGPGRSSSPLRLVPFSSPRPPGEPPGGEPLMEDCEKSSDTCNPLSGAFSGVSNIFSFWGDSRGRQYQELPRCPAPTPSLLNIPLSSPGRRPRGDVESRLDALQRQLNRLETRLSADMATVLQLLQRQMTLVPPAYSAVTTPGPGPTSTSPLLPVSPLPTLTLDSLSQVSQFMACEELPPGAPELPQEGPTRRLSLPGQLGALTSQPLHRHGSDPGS

The next data set addresses human NR1/NR2B (Homo sapiens (Human), UniProt Q05586+Q13224). As to the kind of experiment: NR2B antagonist activity: calcium influx (Fluo-4) assay in HEK293 cells. In kind it is cell-based. As to conditions: read-out: NR2B IC50. The procedure:
Activation of the NR2A or NR2B subtype of NMDA receptor with glutamate as an agonist and glycine co-agonist on these cells results in calcium influx, which can be monitored with fluorescent indicator Fluo-4.
For experiments, the cells were seeded onto poly-D-lysine-coated 96-well black plates with clear bottom (Corning) at a density of ˜50,000 cells/well. After overnight culture, the growth medium was removed from the wells and the cells were incubated at 37° C. for 60 minutes in Hanks buffer containing 4 μM fluo-4-AM (Invitrogen) and 0.1% bovine serum albumin (BSA). After dye-loading, the cells were washed three times with Hanks buffer and incubated for 10 minutes at room temperature with various concentrations of test compounds prepared in Hanks buffer with 0.1% BSA. The cell plates were placed onto an FDSS Cell fluorescence reader (Hamamatsu). After 20 seconds of reading background fluorescence, agonist glutamate at final 100 µM and co-agonist glycine at final 50 μM were added to the cells to activate the receptor, and the resulting fluorescence changes were recorded and quantified. Based on the changes in fluorescence intensity, the pharmacological effect of test compounds was analyzed and the IC50 values derived from a non-linear least squares fitting of the concentration-dependent response to a standard logistic equation using Prism (Graphpad Software, Inc.): Amplitude=Max Amplitude/(1+(IC50/[antagonist])^n).

Another data set concerns the target CYP2D6 (Homo sapiens (Human), UniProt P10635). As to the kind of experiment: CYP P450 enzyme inhibition in pooled human liver microsomes (dextromethorphan probe). It counts as in vitro ADME. As to conditions: for inhibition at 10 min, 10 µM: human, pooled human liver microsomes, pH 7.4, probe dextromethorphan, 5 μM, read-out: CYP2D6 Inhibiton at 10 μM; for IC50: Table 1.4B. The procedure: Test compound concentration-dependent response studies were performed in triplicate.
Background: Liver microsomes are a subcellular fraction often used to study metabolism.

Data set [1] has as its system wild type mice (male NMRI). As to the kind of experiment: Marble Burying Test in wild type mice. In kind it is in vivo, mouse. The procedure:
Animals. Male NMRI mice (20-30 g body weight) were obtained from Janvier Labs (Le Genest-Saint Isle, France) and allowed to acclimate to the animal facility for at least 5 days. Twelve mice were studied per treatment group.
Compound formulation. The test compounds were prepared in a vehicle of 0.5% DMSO and 4% HP-β-CD, and administered orally (PO) or IP. The test compounds or vehicle were administered 20 minutes before the behavioral test described below. Clobazam (8 mg/kg IP), administered 30 minutes before the test, was used as the positive reference compound.
Clobazam was dispersed in 0.2% hydroxypropylmethylcellulose (HPMC) in physiological saline. Dosing volume was 10 mL/kg.
Testing procedure. The Marble Burying Test was conducted as previously described by Broekkamp et al. (Eur. J. Pharmacol. 1986, 126:223-229). Mice exposed to small novel objects (marbles) will bury them in the sawdust floor covering. Anxiolytics decrease the number of marbles buried at non-sedating doses. Mice were individually placed in transparent plastic cages (33×21×18 cm) with 5 cm of sawdust on the floor and 25 marbles grouped in the center of the cage. The cage was covered with an inverted plastic cage. Each test cage, together with the marbles, was impregnated with mouse odor before-hand by leaving 10 mice in the cage for 15 minutes. These mice then played no further role in the experiment. The number of marbles covered by sawdust (⅔ or more) was counted at the end of the 30-minute test. The test was performed blind (compounds versus vehicle).
Statistical analyses. Data were analyzed by comparing test compound-treated groups with the vehicle control group using the Kruskal-Wallis test followed by post-hoc Mann-Whitney U tests. Data comparing the reference compound with the vehicle were analyzed using the Mann-Whitney U test. A p value<0.05 was considered significant.

Data set [2] deals with native rat brain NR2B receptors (Rattus norvegicus (Rat), UniProt P35439+Q00960). As to the kind of experiment: NR2B radioligand binding assay in rat brain using [3H] (E)-N1-(2-methoxybenzyl)-cinnamidine. Conditions: rat brain NR2B receptors. The method, then:
This example describes an NR2B receptor binding assay in rat brain using [^3H] […] The binding assay method was adapted from a previously described cellular human NR1a/NR2B cloned receptor assay (Kiss et al. Neurochem. Internatl. 2005, 46:453-464) to rat brain tissue. This assay serves as a selective measure of NR2B receptor binding activity in native rat brain receptors. Briefly, the brains of male Wistar rats were homogenized (Polytron) before centrifugation at 40,000×g for 15 minutes at 4° C. After 2 washes, the final pellet was homogenized and stored at −80° C. The protein concentration was determined by Bradford assay. [^3H] […] Non-specific binding was assessed in the presence of excess (10 μM) (E)-N1-(2-nethoxybenzyl)-cinnamidine.
Test compounds were solubilized at 10 mM in DMSO. Then the dilutions were performed with a constant solvent concentration (1% DMSO) in the assay. After incubation for 4.5 hours at room temperature, the assays were filtered on GF/3 filters pretreated with 0.3% (v/v) polyethylenimine (PEI) with a Packard system. The experiment was performed in duplicate (n=2).

Setting [3] is: Mus musculus, ip, read-out: Percent Change in marbles buried relative to vehicle.
Setting [4] is: Mus musculus, po, read-out: Percent Change in marbles buried relative to vehicle.
Setting [5] is: mean of replicates, read-out: Arithmetic Mean Ki.

Chain of human NR1/NR2B (Q13224 27-1484, other chains not shown): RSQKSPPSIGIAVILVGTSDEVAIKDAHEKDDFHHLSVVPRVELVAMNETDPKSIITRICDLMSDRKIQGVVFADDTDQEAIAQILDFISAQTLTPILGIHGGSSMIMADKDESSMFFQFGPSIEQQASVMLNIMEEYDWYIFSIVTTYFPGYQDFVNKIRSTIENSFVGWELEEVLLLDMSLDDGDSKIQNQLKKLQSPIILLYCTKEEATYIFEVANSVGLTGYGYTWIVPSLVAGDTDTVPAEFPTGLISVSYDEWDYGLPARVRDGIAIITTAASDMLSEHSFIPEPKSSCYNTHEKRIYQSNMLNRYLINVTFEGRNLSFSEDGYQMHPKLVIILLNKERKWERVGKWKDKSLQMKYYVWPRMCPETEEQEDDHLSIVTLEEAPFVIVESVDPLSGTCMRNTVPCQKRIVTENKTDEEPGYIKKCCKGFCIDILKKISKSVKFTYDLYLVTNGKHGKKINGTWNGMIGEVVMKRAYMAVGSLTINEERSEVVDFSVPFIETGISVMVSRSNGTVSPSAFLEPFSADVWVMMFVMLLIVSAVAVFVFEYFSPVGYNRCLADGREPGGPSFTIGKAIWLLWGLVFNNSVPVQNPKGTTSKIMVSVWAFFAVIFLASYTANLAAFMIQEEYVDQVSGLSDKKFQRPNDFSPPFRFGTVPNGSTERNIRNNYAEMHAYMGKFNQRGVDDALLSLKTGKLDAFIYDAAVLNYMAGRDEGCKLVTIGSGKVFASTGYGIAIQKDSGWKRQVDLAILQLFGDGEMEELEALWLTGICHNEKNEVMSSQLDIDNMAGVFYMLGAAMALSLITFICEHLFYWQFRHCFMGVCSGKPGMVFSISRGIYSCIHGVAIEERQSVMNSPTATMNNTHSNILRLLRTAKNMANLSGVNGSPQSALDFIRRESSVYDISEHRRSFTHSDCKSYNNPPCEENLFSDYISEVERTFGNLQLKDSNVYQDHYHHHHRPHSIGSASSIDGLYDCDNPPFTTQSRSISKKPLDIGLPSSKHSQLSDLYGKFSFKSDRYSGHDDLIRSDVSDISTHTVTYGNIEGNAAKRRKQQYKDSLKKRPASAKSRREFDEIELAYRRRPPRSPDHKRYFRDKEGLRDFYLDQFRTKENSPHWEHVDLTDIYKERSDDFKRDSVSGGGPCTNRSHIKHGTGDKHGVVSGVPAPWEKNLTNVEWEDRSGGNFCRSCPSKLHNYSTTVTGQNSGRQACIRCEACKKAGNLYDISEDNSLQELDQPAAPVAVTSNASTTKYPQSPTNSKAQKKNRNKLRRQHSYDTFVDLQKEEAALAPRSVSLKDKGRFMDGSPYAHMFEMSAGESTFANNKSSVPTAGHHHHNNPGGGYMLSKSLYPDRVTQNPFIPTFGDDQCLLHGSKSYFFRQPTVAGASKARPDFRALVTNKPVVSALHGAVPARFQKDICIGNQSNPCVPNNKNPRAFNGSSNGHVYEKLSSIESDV
Chain of CYP2D6 (P10635 whole entry): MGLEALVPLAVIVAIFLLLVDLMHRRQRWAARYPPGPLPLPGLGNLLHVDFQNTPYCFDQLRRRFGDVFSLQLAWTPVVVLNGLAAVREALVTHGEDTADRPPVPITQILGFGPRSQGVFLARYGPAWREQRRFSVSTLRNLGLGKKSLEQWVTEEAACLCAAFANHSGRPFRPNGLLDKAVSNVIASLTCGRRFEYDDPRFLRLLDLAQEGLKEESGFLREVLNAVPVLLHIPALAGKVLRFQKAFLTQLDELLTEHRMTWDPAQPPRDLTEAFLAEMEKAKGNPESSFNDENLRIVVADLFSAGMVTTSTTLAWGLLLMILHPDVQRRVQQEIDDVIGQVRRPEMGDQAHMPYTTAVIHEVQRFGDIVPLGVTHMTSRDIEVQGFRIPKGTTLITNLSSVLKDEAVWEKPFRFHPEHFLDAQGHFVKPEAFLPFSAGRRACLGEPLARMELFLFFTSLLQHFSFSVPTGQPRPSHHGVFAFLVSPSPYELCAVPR
Chain of native rat brain NR2B receptors (Q00960 27-1482, other chains not shown): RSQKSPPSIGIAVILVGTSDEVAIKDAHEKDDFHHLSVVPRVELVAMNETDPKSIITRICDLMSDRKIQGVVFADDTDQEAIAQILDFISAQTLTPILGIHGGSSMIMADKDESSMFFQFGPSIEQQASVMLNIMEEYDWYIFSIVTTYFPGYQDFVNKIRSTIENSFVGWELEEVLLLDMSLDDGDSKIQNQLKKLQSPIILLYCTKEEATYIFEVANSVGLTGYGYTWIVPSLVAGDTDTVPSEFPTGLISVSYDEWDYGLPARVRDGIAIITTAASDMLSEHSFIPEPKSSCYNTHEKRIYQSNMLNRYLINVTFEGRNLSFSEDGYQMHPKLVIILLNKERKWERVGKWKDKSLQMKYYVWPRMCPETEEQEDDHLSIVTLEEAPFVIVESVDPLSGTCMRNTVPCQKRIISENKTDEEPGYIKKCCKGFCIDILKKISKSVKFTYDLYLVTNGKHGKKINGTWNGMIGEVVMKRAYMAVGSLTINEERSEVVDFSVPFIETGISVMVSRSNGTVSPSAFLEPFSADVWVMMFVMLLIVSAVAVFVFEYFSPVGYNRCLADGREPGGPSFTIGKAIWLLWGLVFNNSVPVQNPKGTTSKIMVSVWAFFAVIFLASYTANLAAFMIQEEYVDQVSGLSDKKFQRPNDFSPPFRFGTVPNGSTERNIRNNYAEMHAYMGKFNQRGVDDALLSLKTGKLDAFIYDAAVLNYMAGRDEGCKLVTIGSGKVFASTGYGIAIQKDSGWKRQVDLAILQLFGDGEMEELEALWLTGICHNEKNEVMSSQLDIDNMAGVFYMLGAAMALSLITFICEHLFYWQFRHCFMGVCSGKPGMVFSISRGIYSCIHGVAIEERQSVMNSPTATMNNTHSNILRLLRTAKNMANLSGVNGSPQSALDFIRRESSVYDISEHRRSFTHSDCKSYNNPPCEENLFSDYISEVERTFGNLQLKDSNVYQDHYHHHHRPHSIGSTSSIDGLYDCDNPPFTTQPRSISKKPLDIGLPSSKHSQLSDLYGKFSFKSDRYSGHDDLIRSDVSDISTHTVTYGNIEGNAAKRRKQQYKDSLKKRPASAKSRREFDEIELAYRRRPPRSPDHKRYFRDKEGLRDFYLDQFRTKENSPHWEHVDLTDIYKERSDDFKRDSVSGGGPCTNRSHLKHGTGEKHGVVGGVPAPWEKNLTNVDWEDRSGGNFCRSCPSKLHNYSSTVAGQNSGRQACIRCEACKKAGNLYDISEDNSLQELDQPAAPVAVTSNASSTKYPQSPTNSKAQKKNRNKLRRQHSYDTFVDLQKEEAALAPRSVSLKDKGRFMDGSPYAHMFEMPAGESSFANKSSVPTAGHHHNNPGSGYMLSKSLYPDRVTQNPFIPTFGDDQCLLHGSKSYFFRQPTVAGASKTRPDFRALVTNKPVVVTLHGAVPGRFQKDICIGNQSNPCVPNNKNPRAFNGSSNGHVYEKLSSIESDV
Protocol for hERG channel: The assay was performed on hERG channel stably expressed in HEK293 cells. The cells were cultured at 37° C. in a humidified CO2 incubator in the growth medium consisting of DMEM, 10% fetal bovine serum and antibiotics. Prior to the assay, the cells were seeded onto a 12-mm PDL-coated glass coverslip and cultured in a 35-mm Petri dish. After 16 to 40 hours culture, the coverslip was transferred into the chamber of OctaFlow perfusion system (ALA Instrument) and under a constant flow of extracellular solution (140 mM NaCl, 4 mM KCl, 1 mM MgCl2, 2 mM CaCl2, 10 mM HEPES, 10 mM D-glucose, pH 7.35, osmolarity 290). Whole cell patch clamping was performed with a glass micropipette filled with intracellular solution (120 mM KCl, 1.75 mM MgCl2, 5.4 mM CaCl2, 10 mM HEPES, 10 mM EGTA, and 4 mM ATP-K2, pH 7.2, osmolarity 310). Giga-seal was maintained during the test. The voltage control and current measurement were carried out using Axon amplifier 700B, Digidata 1440A and CLAMPEX10 software (Molecular Devices). Whole-cell hERG currents were recorded following the Petroski protocol: the cell was held at −80 mV, and the voltage step jumped from −80 to 30 mV and stay for 2 seconds with a 20-millisecond prepulse at −40 mV. After depolarization, the voltage was decreased to −40 mV and stay for 2 seconds, and returned back to −80 mV. Test compound was applied by quartz capillary tubes tip (200 m inner diameter), and the flow rate was controlled at 2-3 mL/min with OctaFlow perfusion system. Different concentrations of the compound were applied to the cells for 5 minutes and the hERG current was measured three times before, during and after compound treatment. The data were analyzed using Clampfit 10 software (Molecular Devices) to generate IC50 values.

With `O=C(OCc1ccc(F)cc1)N1CC[C@H](CNc2nccn3cnnc23)C(F)(F)C1` [E1-1.4^B′], the inhibition at 5 min, 10 µM against hERG channel was found to be 11%. The IC50 at human NR1/NR2B (Table 1.1B), at human NR1/NR2B (Table 1.3B) and on human NR1/NR2B (Table 1.4B) was 20.5 nM in each case. Also, the inhibition at 10 min, 10 µM on CYP2D6 was 19%.
Turning to `CCc1ccc(COC(=O)N2CC[C@H](CNc3ncccn3)C(F)(F)C2)cc1` [E1-22.5^B′, (R)-4-ethylbenzyl 3,3-difluoro-4-((pyrimidin-2-ylamino)methyl)piperidine-1-carboxylate methanesulfonate], it took 9200 nM to reach half-maximal inhibition against hERG channel (IC50). Also, at CYP2D6, it took 29000 nM to reach half-maximal inhibition (IC50). Besides, the change in vivo at 0.1 mg/kg in data set [1] (Mus musculus, ip, 0.1 mg/kg, read-out: Percent Change in marbles buried relative to vehicle) is -9%. Moreover, in data set [1] (setting [3]), the change in vivo at 0.3 mg/kg stood at 8% and the change in vivo at 3 mg/kg was -100%. The change in vivo at 10 mg/kg in data set [1] (Mus musculus, ip, 10 mg/kg, read-out: Percent Change in marbles buried relative to vehicle) is -100%. Besides, in data set [1] (setting [4]), the change in vivo at 0.3 mg/kg was -11%, the change in vivo at 1 mg/kg is -15% and the change in vivo at 3 mg/kg is -76%. Also, the “efficacy in the Marble Burying Test” value in data set [1] (lowest test concentration of 1 mg/kg, IP) was “fully efficacious”.
In the case of `Cc1ccc(COC(=O)N2CC[C@H](CNc3ccc(C)cn3)C(F)(F)C2)cc1` [E1-23.26^B′, (R)-4-methylbenzyl 3,3-difluoro-4-(((5-methylpyridin-2-yl)amino)methyl)piperidine-1-carboxylate], at CYP2D6, the IC50 (usually the point on the concentration scale where inhibition reaches its midpoint) turned out to be 9700 nM. For the same compound, the Ki (usually the dissociation constant of the complex between target and ligand, obtained from inhibition or displacement) in data set [2] (setting [5]) is 6.5 nM.
For `Cc1ccc(COC(=O)N2CC[C@H](CNc3ccccn3)C(F)(F)C2)cc1` [E1-23.2^B′, (R)-4-methylbenzyl 3,3-difluoro-4-((pyridin-2-ylamino)methyl)piperidine-1-carboxylate], the IC50 against hERG channel came to 5600 nM; at CYP2D6, 18000 nM.
`O=C(OC1Cc2ccccc2C1)N1CC[C@H](CNc2ncccn2)C(F)(F)C1` [III-E1-22.1^B′, (R)-2,3-dihydro-1H-inden-2-yl 3,3-difluoro-4-((pyrimidin-2-ylamino)methyl)piperidine-1-carboxylate methanesulfonate]: the IC50 is 35000 nM at hERG channel and greater than 50000 nM against CYP2D6.
As for `Cc1ccc(COC(=O)N2CC[C@H](CNc3cccnn3)C(F)(F)C2)cc1` [E1-24.2^B′, (R)-4-methylbenzyl 3,3-difluoro-4-((pyridazin-3-ylamino)methyl)piperidine-1-carboxylate], the IC50 against hERG channel stood at 25000 nM; against CYP2D6 it was 15000 nM. Moreover, the Ki in data set [2] (individual replicate, read-out: Ki, result from each assay) is 2.1 nM and 3.6 nM; in data set [2] (setting [5]) it was 2.85 nM.
In the case of `Cc1ccc(COC(=O)N2CC[C@H](CNc3cnccn3)C(F)(F)C2)cc1` [E1-21.2^B′], the inhibition at 5 min, 10 µM against hERG channel stood at 27%. Besides, the IC50 on human NR1/NR2B (Table 1.1B), at human NR1/NR2B (Table 1.3B) and at human NR1/NR2B (Table 1.4B) was 13.9 nM in each case. The inhibition at 10 min, 10 µM at CYP2D6 worked out at 97%.
With `O=C(OCc1ccc(Cl)cc1)N1CC[C@H](CNc2nccn3cnnc23)C(F)(F)C1` [E1-1.3^B′], at hERG channel, the inhibition at 5 min, 10 µM worked out at 19%. In addition, the IC50 at human NR1/NR2B (Table 1.1B), on human NR1/NR2B (Table 1.3B) and at human NR1/NR2B (Table 1.4B) was 14.8 nM throughout. Also, the inhibition at 10 min, 10 µM on CYP2D6 is 37%. In addition, the Ki in data set [2] (setting [5]) amounted to 8.67 nM.
In turn, `Cc1ccc(COC(=O)N2CC[C@H](CNc3ccncc3)C(F)(F)C2)cc1` [E1-38.2^B′, (R)-4-methylbenzyl 3,3-difluoro-4-((pyridin-4-ylamino)methyl)piperidine-1-carboxylate methanesulfonate] had an IC50 at hERG channel of 2900 nM. On CYP2D6, this compound registered an IC50 of 1490 nM. In data set [1] (setting [3]), the change in vivo at 0.3 mg/kg is 4%, the change in vivo at 1 mg/kg is -18% and the change in vivo at 3 mg/kg is -76%.
On to `O=C(OCc1ccc(F)cc1)N1CC[C@H](CNc2ncccn2)C(F)(F)C1` [E1-22.4^B′, (R)-4-fluorobenzyl 3,3-difluoro-4-((pyrimidin-2-ylamino)methyl)piperidine-1-carboxylate methanesulfonate], for which the concentration for half-maximal inhibition (IC50) against hERG channel was 39000 nM. On CYP2D6, this compound showed a concentration for half-maximal inhibition (IC50) greater than 50000 nM. In addition, in data set [1] (setting [3]), the change in vivo at 0.3 mg/kg was -6% and the change in vivo at 3 mg/kg is -99%. Further, the change in vivo at 1.78 mg/kg in data set [1] (Mus musculus, ip, 1.78 mg/kg, read-out: Percent Change in marbles buried relative to vehicle) was -97%.
